As a reminder, the LD50 is the dose at which mortality reaches 50%.

We go through five compounds from patent EP0439320A1, “Erectile dysfunction treatment” (YAMANOUCHI PHARMACEUTICAL CO. LTD., priority 1990, dated 1991).

No end group written: not given here.

In data set [1] the test system is penis cavernous smooth muscle of pigs. The data set is described as follows: Relaxation of isolated pig cavernous smooth muscle strip precontracted with noradrenaline (organ bath, tension recorded). The following applies: for Time until prior response restored: contractile response to noradrenaline. The protocol: The pig and humans cavernous smooth muscle specimens are placed in an organ bath, and the tension is recorded. […] Work was also conducted with reference compounds in the porcine tissue, measuring the contractile response to noradrenaline.

Data set [2] concerns human cavernous smooth muscle strip. Description: Relaxation of isolated human cavernous smooth muscle strip contracted with noradrenaline (organ bath). More on the design: species or system humans. The following applies: dose 10^-7 M, contracted with noradrenaline 2 x 10^-5 M, read-out: Inhibiting effect. The protocol: The relaxing effect of compound (I) on isolated specimens of penis cavernous smooth muscle of pigs (smooth muscle strips obtained from slaughtered boards) and of humans was tested by the following method. The pig and humans cavernous smooth muscle specimens are placed in an organ bath, and the tension is recorded. In the case of human cavernous smooth muscle strip, the relaxatory effect was evaluated. The specimen was contracted with a noradrenaline dose of 2 x 10⁻⁵ M and was treated with compound (I) at a dose of 10⁻⁷ M. In Table 2, the result for human tissue is shown.

Data set [3] concerns penis erection (tumescence) and its firmness (rigidity). The data set is described as follows: Tumescence and rigidity after intracorporeal injection in anesthetized monkeys. The data set is classed as in vivo, monkeys (Cynogos or Vervet). The following applies: 0.1 g injected into the corpus cavernosum; evaluated 5 to 120 min after injection; data only in Fig. 1. On the procedure: Tumescence and rigidity after intracorporeal injection of compound (I) were evaluated for monkeys.
Anesthetized monkeys (Cynogos or Vervet), 4-6 kg body weight, were used for the test.
The animal was anesthetized with ketamine and 0.1 g of compound (I) was injected in solution into the corpus cavernosum with a tourniquet at the base of the penis; the animal was then under observation and changes in tumescence and rigidity were noted and plotted. The tourniquet was removed 5 min after the injection.
Manual and visual evaluation of tumescence and rigidity was made 5, 10, 15, 20, 30, 60 and 120 min after injection.
The activity of compound (I) (dose: 0.1 g) on penis erection (tumescence) and firmness (rigidity) in the anesthetized monkeys is shown in Fig. 1.

Data set [4] can be described thus: Acute toxicity test in mice. As to conditions: mouse, in vivo, single dose, 2 weeks observation, read-out: LD50 (95% confidence limits). On the procedure: (§1) The acute toxicity of compound (I) salt was evaluated using ICR mice and F344 rats.
(§2) compound (I) was dissolved in dimethylsulfoxide, and the same amount of Macrogol 400 (trade name) was added, and then distilled water for injection was added thereto to provide a solution of predetermined concentration. The solution was injected once each test, intravenously or subcutaneously, at a rate of 10-20 ml/kg, the maximum concentration of the administered solution being 12 mg/ml and 25 mg/ml respectively. The animals were kept under observation for 2 weeks. LD₅₀ values were determined by the up and down method (Probit method) using 5 animals.

The nature of data set [5]: Acute toxicity test in rats. As to conditions: rat, in vivo, F344 rats, single dose, 2 weeks observation, read-out: LD50 (95% confidence limits). On the procedure: as §1, §2

For the compound `Cc1ccc(N(CC2=NCCN2)c2cccc(O)c2)cc1` [Phentolamine], in data set [1] (antagonist dose 7 x 10^-7 M), the “Time until prior response restored” value was determined as 150 min.
For the compound `COc1ccc(Cc2nccc3cc(OC)c(OC)cc23)cc1OC` [Papaverine], in data set [1] (antagonist dose 2 x 10^-4 M), the “Time until prior response restored” value worked out at 45 min.
On to “vasoactive intestinal peptide (HSDAVFTDNYTRLRKQMAVKKYLNSILN; ends and bridges not checked; UniProt P01282 125-152, looked up) [VIP (vasoactive intestinal peptide)]”, for which the “Time until prior response restored” value in data set [1] (antagonist dose 10^-7 M) stood at 45 min.
Regarding `COc1cc2nc(N3CCN(C(=O)c4ccco4)CC3)nc(N)c2cc1OC` [Prazocin], the “Time until prior response restored” value in data set [1] (antagonist dose 10^-6 M) stood at 160 min.
For `CCOc1ccccc1OCCNC(C)Cc1ccc(OC)c(S(N)(=O)=O)c1` (stereo not drawn) [Compound (I), 5-[2-[2-(2-ethoxyphenoxy)ethylamino]-2-methylethyl] -2-methoxybenzene sulfonamide], the “full response seen (contractile response to noradrenaline)” value in data set [1] (antagonist dose 10^-8 M, at 165 min, noradrenaline 10^-6 to 10^-8 M) is recorded as “At 165 min 60% of full response seen”. In addition, the inhibition at 0.1 µM in data set [2] worked out at 100%. The “Effect on penis erection (tumescence) and firmness (rigidity)” value in data set [3] was “excellent effects of potent penis erection, tumescence and rigidity with long lasting action”. The LD50 at 336 h turned out to be 103 mg/kg in data set [4] (iv, Female); 98 mg/kg in data set [4] (iv, Male); 275 mg/kg in data set [4] (sc, subcutaneous, Female); 254 mg/kg in data set [4] (sc, subcutaneous, Male); 78 mg/kg in data set [5] (iv, intravenous, Female); 70 mg/kg in data set [5] (iv, intravenous, Male). Besides, the LD50 at 336 h in data set [5] (sc, subcutaneous, Female) amounted to 347 mg/kg; in data set [5] (sc, subcutaneous, Male), 395 mg/kg.
